Measured values reported in patent publication US4053478A, “2,5-Di-substituted 4-oxazolealkanoic acids and esters” (Yoshitomi Pharmaceutical Industries, Ltd., priority 1974, dated 1977).

Columns and labels:
[1] = tested on: serum cholesterol and triglyceride levels; assay: Hypolipidemic action: male rats with normal serum lipid (Table 1); format: in vivo, Wistar strain male rats; conditions: 100 mg/kg/day, oral (gastric tube), 5 days, vs control
Protocol: i. Male rats with normal serum lipid (Table 1)
Each test group was composed of more than 5 rats. The test compound was orally given by a gastric tube. Serum cholesterol and triglyceride levels were measured by the standard methods using an autoanalyzer (Technicon Inc.). The levels in the control (placebo) group were considered as 100% and the reduction (%) in the test group was calculated.

[2] = Acute toxicity, rat (Table 5); conditions: in vivo, oral, lethality within two days, read-out: LD50 per os, Rat
Protocol: (§1) The test compound was orally administered to groups each of 5 male mice and rats respectively. The LD50 was calculated from the lethal rate (50%) within two days after administration of the test compound.

[3] = Acute toxicity, mouse (Table 5); conditions: in vivo, oral, lethality within two days, read-out: LD50 per os, Mouse
Protocol: as §1

serum cholesterol level [4] = assay: Hypolipidemic action: dietary hyperlipidemia in male mice (Table 2); format: in vivo, dd-strain male mice; conditions: 5 days
Protocol: ii. Dietary hyperlipidemia in male mice (Table 2)
dd-Strain male mice weighing 20-25 g. were used. Each group was composed of 8 mice. Animals were fed with NMF food (Oriental Yeast Co., Tokyo) containing 1% of cholesterol, 0.2% of cholic acid and 5% of olive oil, and the serum cholesterol level was measured by the use of an autoanalyzer after 5 days administration of the test compound. The levels in the test group was compared with that in the control group given the same diet.

[5] = tested on: bleeding time induced by platelet thrombi; assay: Anti-thrombotic action: bleeding time induced by platelet thrombi, tail vein puncture (Table 4); format: in vivo; conditions: oral, one hour after administration, male mice
Protocol: The bleeding time induced by platelet thrombi was compared with that of the control group, and the rate of prolongation was calculated as an index of anti-thrombotic activity.

serum cholesterol level [6] = assay: Hypolipidemic action: Triton hyperlipidemia in male mice (Table 3); format: in vivo, dd-strain male mice; conditions: intraperitoneal, 18 hours after Triton
Protocol: iii. Triton hyperlipidemia in male mice (Table 3) Each group was composed of eight dd-strain male mice weighing 20-25 g. Immediately after intraperitoneal administration of the test compound to the animals, Triton WR-1339 was intraveniously given. Eighteen hours after Triton administration, the serum cholesterol level was measured and compared with that of the control group treated in the same way.

| SMILES | Lowering Rate (%) of Serum Cholesterol Level [1] | Lowering Rate (%) of Serum Triglyceride Level [1] | LD50 at 48 h [2] | LD50 at 48 h [3] | Lowering Rate (%) of Serum Cholesterol Level (serum cholesterol level [4]; 100 mg/kg/day) | Prolongation Rate (%) of the Bleeding Time ([5]; 12.5 mg/kg/day) | Prolongation Rate (%) of the Bleeding Time ([5]; 25 mg/kg/day) | Prolongation Rate (%) of the Bleeding Time ([5]; 50 mg/kg/day) | Lowering Rate (%) of Serum Cholesterol Level (serum cholesterol level [6]; 50 mg/kg/day) | Lowering Rate (%) of Serum Cholesterol Level (serum cholesterol level [6]; 100 mg/kg/day) | Lowering Rate (%) of Serum Cholesterol Level (serum cholesterol level [4]; 50 mg/kg/day) | Prolongation Rate (%) of the Bleeding Time ([5]; 100 mg/kg/day) | Lowering Rate (%) of Serum Cholesterol Level (serum cholesterol level [6]; 25 mg/kg/day) |
| --- | --- | --- | --- | --- | --- | --- | --- | --- | --- | --- | --- | --- | --- |
| CCOc1oc(-c2ccc(Cl)cc2)nc1CC(=O)OCc1cccnc1 [B, 3-pyridylmethyl 2-p-chlorophenyl-5-ethoxy-4-oxazoleacetate] | 22% | 41% | > 4000 mg/kg | > 4000 mg/kg | 43% | – | – | – | – | – | – | – | – |
| CC(=O)Oc1ccccc1C(=O)O [Acetylsalicylic Acid, reference compound] | – | – | – | – | – | 22% | 65% | 268% | – | – | – | – | – |
| CCOC(=O)Cc1nc(-c2ccc(Cl)cc2)oc1OCC [Compound A, ethyl 2-p-chlorophenyl-5-ethoxy-4-oxazoleacetate] | 25% | 45% | > 4000 mg/kg | 4000 mg/kg | 41% | – | – | – | 26% | 32% | 21% | – | – |
| CCOc1oc(-c2ccncc2)nc1CCC(=O)O [D, 3-[2-(4-pyridyl)-5-ethoxy-4-oxazole]propionic acid] | – | – | > 2000 mg/kg | > 2000 mg/kg | – | 107% | 209% | 321% | – | – | – | 439% | – |
| CCOC(=O)Cc1nc(-c2ccc(Cl)c(Cl)c2)oc1OCC [C, ethyl 2-(3,4-dichlorophenyl)-5-ethoxy-4-oxazoleacetate] | – | – | > 4000 mg/kg | 2000 mg/kg | – | – | – | – | – | 35% | – | – | 18% |
| CCOC(=O)C(C)(C)Oc1ccc(Cl)cc1 [Clofibrate, reference compound] | 31% | 35% | 2300 mg/kg | 1500 mg/kg | 16% | – | – | – | – | 10% | 0% | 38% | – |
